From patent US20030228675A1, “ATM related kinase ATX, nucleic acids encoding same and methods of use” (priority 2002, published 2003)

Key:
Assay type in all cases: cell-based, human
[1] = tested on: hChk2; experiment: IR-dependent phosphorylation of hChk2; conditions: U2OS
Description: Recent findings point toward ATM as a critical upstream regulator of the activity of the checkpoint kinase, hChk2, in IR-damaged cells (Ahn et al., Cancer Res. 60:5934-5936 (2000); Melchionna et al., Nat. Cell Biol. 2:762-765 (2000)). To determine whether ATX was also involved in hChk2 activation, the effect of AS oligonucleotide treatment on the IR-dependent phosphorylation of hChk2 was examined. […] Moreover, the differential effects of AS treatment on p53 expression versus hChk2 activation argue against the possibility that AS exposure leads to nonspecific inhibition of checkpoint signaling responses to IR-induced DNA damage.

[2] = tested on: NMD of the Ter-containing β-globin mRNA; experiment: NMD assay, β-globin Ter mRNA by RT-PCR; conditions: U2OS, reduced endogenous ATX expression
Description: To prepare recombinant HA-tagged ATX and ATM proteins, HEK 293T cells were plated onto 60-mm dishes (9×10^5 cells per dish), and were transfected with 5 μg pcDNA3.1 (empty vector), HA-ATXWT, HA-ATXKI, or HA-ATMWT plasmid DNAS. Transfections were performed with the Fugene 6 transfection reagent (Roche), according to the manufacturer's instructions. For NMD assays (see Example 9, below), U2OS cells were seeded onto 100 mm dishes (1×10^6 cells per dish). After 20 h, cells were transfected with 1.5 μg of pmCMV-Gl test plasmid, either Norm or 39Ter (Ishigaki et al., 2001); 1.5 μg of phCMV-MUP reference plasmid (Ishigaki et al., Cell 106:607-617 (2001)); and 7 μg of empty plasmid (pcDNA 3.1), plasmids encoding HA-ATMWT, HA-ATMKI, HA-ATXWT or HA-ATXKI. For antisense transfection experiments, U2OS cells were seeded onto 60 mm dishes (1×10^5 cells per dish) in complete medium supplemented with penicillin/streptomycin. […]
Total or nuclear RNA was isolated using Trizol (Invitrogen) or the NE-PER kit (Pierce), respectively. The extent of NMD was determined by using RT-PCR to quantitate the levels of Globin and MUP mRNA as described previously (Ishigaki et al., Cell 83: 1-4 (2001)), except that 21 cycles of PCR were used when analyzing the effects of ATX-specific S and AS oligonucleotides.

[3] = tested on: U2OS cells; experiment: Cell-cycle distribution by flow cytometry
Description: Since p53 plays a central role in activation of the G1 checkpoint, and influences S, G2, and M checkpoints as well (Giaccia and Kastan, Genes & Development 12:2973-2983 (1998); Ko and Prives, supra, 1996), a functional deficiency of ATX might alter the cell-cycle arrest responses to IR and other genotoxic agents. To test this possibility, U2OS cells were pre-treated with S or AS oligonucleotides, exposed to IR, and cell-cycle distributions at 24 h post-irradiation were determined.
The G2 checkpoint inhibitor was added to the culture medium at 8 h prior to harvest for determination of cell-cycle distributions (FIG. 3E, left panel), and immunoblotting for ATX expression (right panel).

5′-AGCAAGCTCCCTCCTGTCTC-3′ (all phosphorothioate, sugars by position and methylation of C not given here) [AS oligonucleotide, ATX antisense phosphorothioate oligonucleotide complementary to ATX nucleotides 210-229]
IR-dependent phosphorylation of hChk2 [1]: retained the ability to phosphorylate hChk2
NMD activity [2]: ATX expression is required for maximal NMD activity
cell-cycle distribution after IR exposure ([3]; 24 h post-irradiation): arrested primarily in G2/M phase
subpopulation with <2N DNA content (apoptotic cells) ([3]; no IR): increased subpopulation
cell-cycle distribution in the absence of IR ([3]; no IR, versus S oligonucleotide): reduction in the percentage of G1 phase cells, and a concomitant accumulation of G2/M phase cells
